This passage reports melting point and IC50 results from patent US6683101B2, “Bicyclic cyclohexylamines and their use as NMDA receptor antagonists” (Warner-Lambert Company, priority 2000, dated 2004).

Structures can show the parent of a compound that is named as a salt.

Chain of NR2A/NR2B (Q00960 27-1482, other chains not shown): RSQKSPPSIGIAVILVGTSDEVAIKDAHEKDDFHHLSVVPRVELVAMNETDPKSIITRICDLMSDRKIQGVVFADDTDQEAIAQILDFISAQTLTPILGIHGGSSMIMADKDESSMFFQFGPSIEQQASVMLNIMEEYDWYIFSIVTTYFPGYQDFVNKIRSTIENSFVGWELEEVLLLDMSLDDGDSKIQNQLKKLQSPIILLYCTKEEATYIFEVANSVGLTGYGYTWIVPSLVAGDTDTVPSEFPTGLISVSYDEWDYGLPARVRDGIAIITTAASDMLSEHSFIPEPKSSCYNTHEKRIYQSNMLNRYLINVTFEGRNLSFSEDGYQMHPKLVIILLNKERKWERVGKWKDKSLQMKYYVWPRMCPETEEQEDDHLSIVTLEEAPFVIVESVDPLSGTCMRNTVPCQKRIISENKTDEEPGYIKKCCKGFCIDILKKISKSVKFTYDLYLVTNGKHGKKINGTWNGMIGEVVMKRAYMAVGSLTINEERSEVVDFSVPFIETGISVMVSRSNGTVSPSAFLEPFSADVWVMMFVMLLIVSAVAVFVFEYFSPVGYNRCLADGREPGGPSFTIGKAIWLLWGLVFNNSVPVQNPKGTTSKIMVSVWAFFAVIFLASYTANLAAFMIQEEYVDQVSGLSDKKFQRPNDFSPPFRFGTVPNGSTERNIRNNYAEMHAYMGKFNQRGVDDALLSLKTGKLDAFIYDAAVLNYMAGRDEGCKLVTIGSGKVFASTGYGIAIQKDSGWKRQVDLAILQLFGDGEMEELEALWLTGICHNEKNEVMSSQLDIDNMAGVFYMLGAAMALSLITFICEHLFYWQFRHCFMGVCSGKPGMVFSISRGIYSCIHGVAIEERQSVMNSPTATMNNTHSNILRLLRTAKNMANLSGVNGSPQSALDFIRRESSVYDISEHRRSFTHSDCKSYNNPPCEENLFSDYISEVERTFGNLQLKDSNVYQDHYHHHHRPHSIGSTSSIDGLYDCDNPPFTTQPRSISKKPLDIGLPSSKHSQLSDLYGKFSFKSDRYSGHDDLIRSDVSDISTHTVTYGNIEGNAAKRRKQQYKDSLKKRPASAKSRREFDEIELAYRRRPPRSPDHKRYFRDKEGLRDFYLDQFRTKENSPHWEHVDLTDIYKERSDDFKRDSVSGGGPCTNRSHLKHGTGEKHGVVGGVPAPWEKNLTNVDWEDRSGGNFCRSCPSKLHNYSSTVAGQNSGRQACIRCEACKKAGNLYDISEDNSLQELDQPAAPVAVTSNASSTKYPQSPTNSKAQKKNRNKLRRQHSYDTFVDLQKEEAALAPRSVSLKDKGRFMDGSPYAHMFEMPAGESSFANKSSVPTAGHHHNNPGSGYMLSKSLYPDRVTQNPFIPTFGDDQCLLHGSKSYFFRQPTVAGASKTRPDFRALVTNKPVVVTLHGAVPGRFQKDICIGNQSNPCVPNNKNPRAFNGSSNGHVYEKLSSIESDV

Tested on in one data set: not given
Assay: not given
Details: not given
Consider `O=c1[nH]c2ccc(CCCN[C@H]3CC[C@H](c4ccccc4)CC3)cc2o1` [Example 1, 6-[3-(trans-4-Phenylcyclohexylamino)propyl]-3H-benzoxazol-2-one], for which the melting point was in the range of 218 to 223 °C. Same read-out and setting: to `CN(CCCc1ccc2[nH]c(=O)oc2c1)[C@H]1CC[C@H](c2ccc(F)cc2)CC1` (as salt: HCl) [Example 6, 6-(3-{[trans-4-(4-Fluorophenyl)cyclohexyl]methylamino}propyl)-3H-benzoxazol-2-one] belongs 235 to 241 °C; to `O=c1[nH]c2ccc(CCCN[C@H]3CC[C@H](c4ccc(F)cc4)CC3)cc2o1` (as salt: HCl) [Example 2, 6-{3-[trans-4-(4-Fluorophenyl)cyclohexylamino]propyl}-3H-benzoxazol-2-one], 295 to 303 °C; to `CCN(CCCc1ccc2[nH]c(=O)oc2c1)[C@H]1CC[C@H](c2ccc(F)cc2)CC1` (as salt: HCl) [Example 7, 6-(3-{[trans-4-(4-Fluorophenyl)cyclohexyl]ethylamino}propyl)-3H-benzoxazol-2-one], 99 to 109 °C. Still for that read-out and setting: with `O=c1[nH]c2ccc(OCCN[C@H]3CC[C@@H](c4ccccc4)CC3)cc2[nH]1` (as salt: HCl) [Example 8a, 5-[2-(cis-4-Phenylcyclohexylamino)ethoxy]-1,3-dihydrobenzimidazol-2-one] the figure was 232 to 237 °C. In the case of `CN(CCN[C@H]1CC[C@H](c2ccccc2)CC1)c1ccc2[nH]c(=O)oc2c1` (as salt: HCl) [Example 3, 6-{Methyl[2-(trans-4-phenylcyclohexylamino)ethyl]amino}-3H-benzoxazol-2-one], the melting point lay in the range of 229 to 234 °C.

Compound `O=c1[nH]c2ccc(OCCN[C@H]3CC[C@H](c4ccccc4)CC3)cc2[nH]1` (as salt: HCl) [Example 8b, 5-[2-(trans-4-Phenylcyclohexylamino)ethoxy]-1,3-dihydrobenzimidazol-2-one] displayed a melting point of 315 to 320 °C.

The next data set deals with NR2A/NR2B (Rattus norvegicus, UniProt Q00960). Briefly: Electrophysiological assay at NMDA receptor subunits expressed in Xenopus oocytes (two-electrode voltage clamp). The data set is classed as cell-based. The conditions noted are these: cloned rat NMDA receptor subunits in Xenopus oocytes; currents activated by glutamate (100 μM) and glycine (1-100 μM); read-out: NR2A/NR2B Oocyte IC50. The text has this:
Electrophysiological Assays at NMDA Receptor Subunits
Preparation of RNA. cDNA clones encoding the NR1A, NR2A, NR2B, and NR2C rat NMDA receptor subtypes were used (see, Moriyoshi et al. Nature (Lond), 1991;354:31-37; Kutsuwada et al. Nature (Lond), 1992;358:36-41; Monyer et al. Science (Washington, D.C.), 1992;256:1217-1221; Ikeda et al. FEBS Lett., 1992;313:34-38; Ishii et al. J. Biol. Chem., 1993;268:2836-2843 for details of these clones or their mouse homologs). The clones were transformed into appropriate host bacteria, and plasmid preparations were made with conventional DNA purification techniques. A sample of each clone was linearized by restriction enzyme digestion of […] and was synthesized with T3 RNA polymerase. The cRNA was diluted to 400 ng/μL and stored in 1 μL aliquots at −80° C. until injection.
The Xenopus oocyte expression system. Mature female Xenopus laevis were anaesthetized (20-40 minutes) using 0.15% 3-aminobenzoic acid ethyl ester (MS-222), and 2-4 ovarian lobes were surgically removed. Oocytes at developmental stages IV-VI (Dumont J. N. J. Morphol., 1972;136:153-180) were dissected from the ovary still surrounded by enveloping ovarian tissues. Follicle-enclosed oocytes were micro-injected with 1:1 mixtures of NR1A:NR2A, 2B, or 2C; injecting 1 to 10 ng of RNA encoding each receptor subunit. NR1A encoding RNA was injected alone at ˜20 ng. Oocytes were stored in Barth's medium containing (in mM): NaCl, 88; KCl, 1; CaCl2, 0.41; Ca (NO3)2, 0.33; MgSO4, 0.82; NaHCO3, 2.4; HEPES 5, pH 7.4, with 0.11 mg/ml gentamicin sulphate. While oocytes were still surrounded by enveloping ovarian tissues, the Barth's medium was supplemented with 0.1% bovine serum. […]
Electrical recordings were made using a conventional two-electrode voltage clamp (Dagan TEV-200) over periods ranging between 3 to 21 days following injection. […] Using oocytes expressing different subunit combinations of NMDA receptor, NMDA currents were activated by co-application of glutamate (100 μM and glycine (1-100 μM). Inhibitory potency of the novel antagonists was assessed on responses elicited by fixed concentrations of glutamate and glycine, by measuring reductions in current induced by progressively increasing concentrations of antagonist. […]
In which Icontrol is the current evoked by agonists alone, pIC50=−log IC50, IC50 is the concentration of antagonist that produced half maximal inhibition, and n is the slope factor (De Lean et al. Am. J. Physiol., 1978;235:E97-102). For incomplete curves, analysis by fitting was unreliable, and IC50 values were calculated by simple regression over linear portions of the curves (Origin: Microcal Software).
On the technique in general: Two-electrode voltage clamp holds a large cell at a set potential and records current.
Regarding `CN(CCN[C@H]1CC[C@H](c2ccccc2)CC1)c1ccc2[nH]c(=O)oc2c1` [Example 3, 6-{Methyl[2-(trans-4-phenylcyclohexylamino)ethyl]amino}-3H-benzoxazol-2-one], the IC50 is 1000 nM. With `O=c1[nH]c2ccc(CCCN[C@H]3CC[C@H](c4ccc(F)cc4)CC3)cc2o1` [Example 2, 6-{3-[trans-4-(4-Fluorophenyl)cyclohexylamino]propyl}-3H-benzoxazol-2-one], the IC50 amounted to 120 nM. Still for that read-out and setting: to `O=c1[nH]c2ccc(OCCN[C@H]3CC[C@@H](c4ccccc4)CC3)cc2[nH]1` [Example 8a, 5-[2-(cis-4-Phenylcyclohexylamino)ethoxy]-1,3-dihydrobenzimidazol-2-one] belongs 280 nM; to `O=c1[nH]c2ccc(OCCN[C@H]3CC[C@H](c4ccccc4)CC3)cc2[nH]1` [Example 8b, 5-[2-(trans-4-Phenylcyclohexylamino)ethoxy]-1,3-dihydrobenzimidazol-2-one], 120 nM.

The target of a further data set is T1, NMDA receptor ([3H]ifenprodil binding site) (Rattus norvegicus, UniProt P35439+Q00960).
T1 construct: tissue Zivic-Miller Laboratories, Inc; host or cells: adult rat forebrain, washed buffy coat membrane fraction
T1 sequence (Q00960 27-1482, other chains not shown): as above
Briefly: [3H]Ifenprodil binding assay, rat forebrain membranes. The conditions noted are these: adult rat forebrain membranes, 4 nM [3H]-ifenprodil, 2 hours at room temperature, pH 7.4. How it is done: [^3H]Ifenprodil Binding Assay Protocol:
All buffers and reagents used in assay incubations or to dissolve drugs were prepared using water purified through a Milli-Q reverse osmosis system (Millipore Corp, Bedford, Mass.) and treated with UV emissions. Prior to use in the assays, buffers were further filtered through a sterile Corning filtration unit (Corning Glass Works, Corning, N.Y.) containing a 0.2 micron filter. Buffer used to rinse the membranes on the assay filters was prepared with purified water, but was not refiltered and was stored no longer than 5 days. Stock solutions of the drugs (usually 10 mM) were dissolved in 20 mM HEPES-KOH buffer pH 7.4 (assay buffer) with the addition of 1 to 5 μL of glacial AcOH, if needed, to keep them in solution. For eliprodil, the stock solution was buffer with the addition of 10% DMSO. All subsequent dilutions from stock were made in buffer.
An extensively washed buffy coat membrane fraction was prepared from frozen adult rat forebrains (Zivic-Miller Laboratories, Inc, Zelienople, Pa.) as described previously (Coughenour L. L., Cordon J. J. J. Pharmacol Exp. Ther., 1997;280:584-592) and stored at −80° C. On the day of the assay, pellets were resuspended in 35 mL of assay buffer at pH 7.4 using a Polytron setting 6. After incubation at 37° C. for 30 minutes in a shaking water bath, the homogenate was centrifuged 40,000×g for 10 minutes at 4° C. The pellets were resuspended in fresh buffer and centrifuged 3 more times before final suspension for use in the assay.
[^3H]Ifenprodil Binding. Triplicate incubations were carried out in a volume of 0.5 mL in 1.3 mL polypropylene tubes (Marsh Biomedical Products Inc, Rochester, N.Y.) for 2 hours at room temperature. Incubations contained test agents, membranes (100-200 μg protein), and 4 nM [^3H]-ifenprodil in 20 mM HEPES-KOH buffer, pH 7.4 (assay buffer). Assays were started by addition of the membranes. Bound radioligand was separated by filtration under reduced pressure Using a Tomtec Mach II, 96-well cell harvester (Tomtec Inc, Orange, Colo.). Filtration was through Whatman GF/B glass fiber filters (Whatman Ltd, Maidstone, England), which had been soaked for at least 15 minutes in 0.3% polyethylenimine and allowed to air dry. The filters were rinsed with 3 mL of ice cold assay buffer within 6 seconds. Air was allowed to pass through the filters for an additional 10 seconds to remove residual moisture. The filter mat was supported on a cold (−20° C.) teflon support, and filters from individual wells were separated and placed in Mini Poly-Q vials (Beckman Instrrnents Inc, Fullerton, Calif.) and filled with 4 mL of scintillation cocktail (Beckman Ready Protein^+). Radioactivity retained on the filter was determined by liquid scintillation spectrophotometry. Nonspecific binding was defined as the binding in the presence of 1 mM ifenprodil. Specific binding was 90%.
Data analysis. Binding curves were statistically analyzed for a best one or two site competition fit using GraphPad Prism software (GraphPad Software Inc, San Diego, Calif.). The normalized data was fit by nonweighted nonlinear regression to either [formula]
Control data was entered as 100%, and no parameters were constrained. Inhibition curves were compared by ANOVA with post test comparisons of the logIC50 using Dunnett's multiple comparisons post test or Student's nonpaired, two-tailed t-test (GraphPad InStat software).
For the compound `CN(CCCc1ccc2[nH]c(=O)oc2c1)[C@H]1CC[C@H](c2ccc(F)cc2)CC1` [Example 6, 6-(3-{[trans-4-(4-Fluorophenyl)cyclohexyl]methylamino}propyl)-3H-benzoxazol-2-one], the IC50 was 730 nM. Compound `O=c1[nH]c2ccc(CCCN[C@H]3CC[C@H](c4ccccc4)CC3)cc2o1` [Example 1, 6-[3-(trans-4-Phenylcyclohexylamino)propyl]-3H-benzoxazol-2-one] registered an IC50 of 53 nM. Same read-out and setting: with `O=c1[nH]c2ccc(SCCN[C@H]3CC[C@H](c4ccccc4)CC3)cc2o1` [Example 4, 6-[2-(trans-4-Phenylcyclohexylamino)ethylsulfanyl]-3H-benzoxazol-2-one] the figure was 91 nM. The same measure, in the same setting: with `CN(CC(O)c1ccc2[nH]c(=O)[nH]c2c1)[C@H]1CC[C@H](c2ccccc2)CC1` (stereo partly drawn) [Example 5, 5-{1-Hydroxy-2-[methyl(trans-4-phenylcyclohexyl)amino]ethyl}-1,3-dihydrobenzimidazol-2-one] the figure was 1760 nM; with `CCN(CCCc1ccc2[nH]c(=O)oc2c1)[C@H]1CC[C@H](c2ccc(F)cc2)CC1` [Example 7, 6-(3-{[trans-4-(4-Fluorophenyl)cyclohexyl]ethylamino}propyl)-3H-benzoxazol-2-one], above 1000 nM.

As a reminder, the melting point is the temperature of the solid-liquid transition.
